Consider three compounds from ChEMBL document CHEMBL2151020, “JBIR-129 and -139, cytotoxic 34-membered polyol macrolides of microbial origin” (J Nat Prod, 2012).

For the assay, the system named is SK-OV-3. The experiment in a line: Cytotoxicity against human SKOV3 cells after 72 hrs by WST8 assay. The note with it: SK-OV-3, 72 h. The class given is functional, cell-based.
`CCC(O[C@H]1CC[C@H](O[C@H]2CC[C@H](O)[C@@H](C)O2)[C@@H](C)O1)C(C)C(O)C(C)C(O)C(C)C1C/C=C/C=C/C(O)CC(O)C(C)C(O)CC(O)C(C)C2CC(O)C(O)C(O)(CC(O[C@@H]3O[C@H](C)[C@@H](O)[C@H](O[C@H]4C[C@@H](O)[C@H](O)[C@@H](C)O4)[C@H]3O[C@@H]3O[C@H](C)[C@@H](O)[C@H](O)[C@H]3O)C(C)CCC(O)CC(O)C/C=C/C=C/C(=O)O1)O2` (stereo partly drawn) gave an IC50 of 300 nM.
With `CCC(O[C@H]1CC[C@H](O[C@H]2CC[C@H](O)[C@@H](C)O2)[C@@H](C)O1)C(C)C(O)C(C)C(O)C(C)C1C/C=C/C=C/C(O)CC(O)C(C)C(O)CC(O[C@@H]2O[C@H](CO)[C@H](O)[C@H](O)[C@H]2NC(C)=O)C(C)C2CC(O)C(O)C(O)(CC(O[C@@H]3O[C@H](C)[C@@H](O)[C@H](O[C@H]4C[C@@H](O)[C@H](O)[C@@H](C)O4)[C@H]3O[C@@H]3O[C@H](C)[C@@H](O)[C@H](O)[C@H]3O)C(C)CCC(O)CC(O)C/C=C/C=C/C(=O)O1)O2` (stereo partly drawn), inhibition was half-maximal at 400 nM (IC50).
`COc1cccc2c1C(=O)c1c(O)c3c(c(O)c1C2=O)C[C@@](O)(C(=O)CO)C[C@@H]3O[C@H]1C[C@H](N)[C@H](O)[C@H](C)O1` [DOXORUBICIN] showed an IC50 of 30 nM.

By IC50 is commonly meant the concentration at which inhibition is half-maximal. Lower therefore signals higher potency.
